Consider one molecule from patent US20260157955A1, “DEDIFFERENTIATED PLANT CELLS OF THE GENUS PAEONIA, EXTRACTS THEREOF AND COSMETIC USES THEREOF” (L'OREAL, priority 2021, published 2026).

Each structure is given as a SMILES string.

Format in all cases: cell-based
Holding throughout (details): 0.1 μM, 24 hours, human epidermal keratinocytes, n=2, vs control

One assay relates to SPRR1A. Briefly: Expression of transcripts in human keratinocytes (RT-qPCR): SPRR1A. Here is the method: (§1) Human epidermal keratinocytes were seeded in a 24-well culture plate and cultured for 72 hours at 37° C. and 5% CO2 in culture medium with renewal of the culture medium after the first 24 hours. At the end of the incubation, the culture medium was replaced with assay medium (supplemented with 1.5 mM CaCl2) containing starting or reference material (retinoic acid) or not containing same (control), and cells were incubated for another 24 hours. All the experimental conditions were performed in n=2. At the end of the treatment, the cells were washed twice in PBS (without CaCl2, without MgCl2) and RNA extraction was carried out using TriPure Isolation Reagent® according to the manufacturer's recommendations. The relative expression of the selected markers was measured by two-step RT-qPCR. First, reverse transcription was performed with the aid of Transcriptor Reverse Transcriptase (Roche) according to the manufacturer's recommendations. Then, PCR experiments were performed using a LightCycler® 480 real-time PCR system with a SYBR®Green incorporation measurement system (Roche).

The subject of another assay is CNFN. Briefly: Expression of transcripts in human keratinocytes (RT-qPCR): CNFN. Here is the method:
as §1

Another assay relates to TGM1. Briefly: Expression of transcripts in human keratinocytes (RT-qPCR): TGM1. Here is the method: as §1
The test system of another assay is CLDN1. Briefly: Expression of transcripts in human keratinocytes (RT-qPCR): CLDN1. How it is done:
as §1

The next assay has as its system AQP3. Briefly: Expression of transcripts in human keratinocytes (RT-qPCR): AQP3. How it is done: as §1

As for `CC1=C(/C=C/C(C)=C/C=C/C(C)=C/C(=O)O)C(C)(C)CCC1` [Retinoic acid, retinoic acid], in the assay with SPRR1A, the “relative expression of SPRR1A” value came to 0.26. In the assay with CNFN, the “relative expression of CNFN” value came out at 0.46. Besides, the “relative expression of TGM1” value in the assay on TGM1 was determined as 0.49. In addition, the “relative expression of CLDN1” value with CLDN1 is reported as 0.85. In addition, the “relative expression of AQP3” value with AQP3 is given as 1.04.
